# Organism: Rattus norvegicus
# Assay: Open TG-GATES - Regimen: Single
# Format: toxicity, organism-based, Sprague-Dawley
# Set-up: regimen Single, gender Male, age 6 weeks
# Conditions: in vivo, po, route gavage; for KIDNEY_L / KIDNEY_R / KIDNEY_TOTAL: tissue Kidney; for LIVER: tissue Liver; for ALP / ALT / CRE / DBIL / GLC / IP / K / Na / RALB / TBIL / TG / TP / gamma-GTP / BUN / PL: tissue Plasma
# [1] = 0 mg/kg, 3 h, dose level Control
# [2] = 0 mg/kg, 3 h, tissue Blood, dose level Control
# [3] = 0 mg/kg, 6 h, dose level Control
# [4] = 0 mg/kg, 6 h, tissue Blood, dose level Control
# [5] = 0 mg/kg, 9 h, dose level Control
# [6] = 0 mg/kg, 9 h, tissue Blood, dose level Control
# [7] = 0 mg/kg, 24 h, dose level Control
# [8] = 0 mg/kg, 24 h, tissue Blood, dose level Control
# [9] = 3 mg/kg, 3 h, tissue Blood, dose level Low
# [10] = 3 mg/kg, 6 h, tissue Blood, dose level Low
# [11] = 3 mg/kg, 9 h, tissue Blood, dose level Low
# [12] = 3 mg/kg, 24 h, tissue Blood, dose level Low
structure (smiles),measurement,setting,value
CNCCC(Oc1ccc(C(F)(F)F)cc1)c1ccccc1.Cl (centres undefined) [FLUOXETINE HYDROCHLORIDE],TERMINAL_BW,[1],216.5 g
same,Bas,[2],0%
same,Eos,[2],1%
same,Ht,[2],41.2%
same,Lym,[2],72.6%
same,MCHC,[2],32.1%
same,Ret,[2],8.8%
same,WBC,[2],83.4 x10_2/uL
same,KIDNEY_L,[1],0.9 g
same,KIDNEY_R,[1],0.9 g
same,KIDNEY_TOTAL,[1],1.9 g
same,LIVER,[1],10.4 g
same,ALP,[1],1343.2 IU/L
same,ALT,[1],37.8 IU/L
same,CRE,[1],0.4 mg/dL
same,DBIL,[1],0.014 mg/dL
same,GLC,[1],198 mg/dL
same,IP,[1],10.1 mg/dL
same,K,[1],4.9 meq/L
same,Na,[1],138.2 meq/L
same,RALB,[1],4.1 g/dL
same,TBIL,[1],0.056 mg/dL
same,TG,[1],81.8 mg/dL
same,TP,[1],5.7 g/dL
same,gamma-GTP,[1],0.4 IU/L
same,TERMINAL_BW,[3],217.6 g
same,Bas,[4],0%
same,Eos,[4],1%
same,Ht,[4],41.1%
same,Lym,[4],72%
same,MCHC,[4],32.2%
same,Ret,[4],6.9%
same,WBC,[4],98.6 x10_2/uL
same,KIDNEY_L,[3],1 g
same,KIDNEY_R,[3],1 g
same,KIDNEY_TOTAL,[3],2.1 g
same,LIVER,[3],9.3 g
same,ALP,[3],1497.6 IU/L
same,ALT,[3],35 IU/L
same,BUN,[3],9.2 mg/dL
same,CRE,[3],0.4 mg/dL
same,DBIL,[3],0.008 mg/dL
same,GLC,[3],191 mg/dL
same,IP,[3],9.8 mg/dL
same,K,[3],5 meq/L
same,Na,[3],137.3 meq/L
same,PL,[3],131.2 mg/dL
same,RALB,[3],3.8 g/dL
same,TBIL,[3],0.048 mg/dL
same,TG,[3],45.8 mg/dL
same,TP,[3],5.3 g/dL
same,gamma-GTP,[3],1 IU/L
same,TERMINAL_BW,[5],216.1 g
same,Bas,[6],0%
same,Eos,[6],1%
same,Ht,[6],40.2%
same,Lym,[6],66.4%
same,MCHC,[6],32.5%
same,Ret,[6],8%
same,WBC,[6],106.4 x10_2/uL
same,KIDNEY_L,[5],1 g
same,KIDNEY_R,[5],1 g
same,KIDNEY_TOTAL,[5],2 g
same,LIVER,[5],9.2 g
same,ALP,[5],1190.2 IU/L
same,ALT,[5],28.6 IU/L
same,CRE,[5],0.4 mg/dL
same,DBIL,[5],0.01 mg/dL
same,GLC,[5],188.2 mg/dL
same,IP,[5],10.2 mg/dL
same,K,[5],5.1 meq/L
same,Na,[5],139 meq/L
same,PL,[5],139.8 mg/dL
same,RALB,[5],3.8 g/dL
same,TBIL,[5],0.042 mg/dL
same,TG,[5],63 mg/dL
same,TP,[5],5.3 g/dL
same,gamma-GTP,[5],0.4 IU/L
same,TERMINAL_BW,[7],234.5 g
same,Bas,[8],0%
same,Eos,[8],1%
same,Ht,[8],39.6%
same,Lym,[8],76.4%
same,MCHC,[8],32.7%
same,Ret,[8],7%
same,WBC,[8],121.8 x10_2/uL
same,KIDNEY_L,[7],1 g
same,KIDNEY_R,[7],1 g
same,KIDNEY_TOTAL,[7],2 g
same,ALP,[7],1409.4 IU/L
same,ALT,[7],36.6 IU/L
same,CRE,[7],0.4 mg/dL
same,DBIL,[7],0.012 mg/dL
same,GLC,[7],194.6 mg/dL
same,IP,[7],8.1 mg/dL
same,K,[7],5.1 meq/L
same,Na,[7],138.3 meq/L
same,RALB,[7],4 g/dL
same,TBIL,[7],0.036 mg/dL
same,TG,[7],133.6 mg/dL
same,TP,[7],5.6 g/dL
same,gamma-GTP,[7],1 IU/L
same,TERMINAL_BW,"3 mg/kg, 3 h, dose level Low",213 g
same,Bas,[9],0%
same,Eos,[9],1%
same,Ht,[9],41.8%
same,Lym,[9],76.6%
same,MCHC,[9],32.2%
same,Ret,[9],7.7%
same,WBC,[9],94.4 x10_2/uL
same,KIDNEY_L,"3 mg/kg, 3 h, dose level Low",0.9 g
same,KIDNEY_R,"3 mg/kg, 3 h, dose level Low",0.9 g
same,KIDNEY_TOTAL,"3 mg/kg, 3 h, dose level Low",1.8 g
same,LIVER,"3 mg/kg, 3 h, dose level Low",9.9 g
same,ALP,"3 mg/kg, 3 h, dose level Low",1490.4 IU/L
same,ALT,"3 mg/kg, 3 h, dose level Low",36.6 IU/L
same,BUN,"3 mg/kg, 3 h, dose level Low",11.4 mg/dL
same,CRE,"3 mg/kg, 3 h, dose level Low",0.4 mg/dL
same,DBIL,"3 mg/kg, 3 h, dose level Low",0.012 mg/dL
same,GLC,"3 mg/kg, 3 h, dose level Low",209 mg/dL
same,IP,"3 mg/kg, 3 h, dose level Low",10 mg/dL
same,K,"3 mg/kg, 3 h, dose level Low",4.5 meq/L
same,Na,"3 mg/kg, 3 h, dose level Low",138 meq/L
same,RALB,"3 mg/kg, 3 h, dose level Low",4.1 g/dL
same,TBIL,"3 mg/kg, 3 h, dose level Low",0.042 mg/dL
same,TG,"3 mg/kg, 3 h, dose level Low",85 mg/dL
same,TP,"3 mg/kg, 3 h, dose level Low",5.8 g/dL
same,gamma-GTP,"3 mg/kg, 3 h, dose level Low",0.2 IU/L
same,TERMINAL_BW,"3 mg/kg, 6 h, dose level Low",215.1 g
same,Bas,[10],0%
same,Eos,[10],1%
same,Ht,[10],41.2%
same,Lym,[10],67.4%
same,MCH,[10],22 pg
same,MCHC,[10],32.5%
same,Ret,[10],6.8%
same,WBC,[10],80.2 x10_2/uL
same,KIDNEY_L,"3 mg/kg, 6 h, dose level Low",0.9 g
same,KIDNEY_R,"3 mg/kg, 6 h, dose level Low",0.9 g
same,KIDNEY_TOTAL,"3 mg/kg, 6 h, dose level Low",1.8 g
same,LIVER,"3 mg/kg, 6 h, dose level Low",9.5 g
same,ALP,"3 mg/kg, 6 h, dose level Low",1275 IU/L
same,ALT,"3 mg/kg, 6 h, dose level Low",36.8 IU/L
same,BUN,"3 mg/kg, 6 h, dose level Low",10.2 mg/dL
same,CRE,"3 mg/kg, 6 h, dose level Low",0.4 mg/dL
same,DBIL,"3 mg/kg, 6 h, dose level Low",0.01 mg/dL
same,GLC,"3 mg/kg, 6 h, dose level Low",196 mg/dL
same,IP,"3 mg/kg, 6 h, dose level Low",10.3 mg/dL
same,K,"3 mg/kg, 6 h, dose level Low",4.8 meq/L
same,Na,"3 mg/kg, 6 h, dose level Low",137.7 meq/L
same,RALB,"3 mg/kg, 6 h, dose level Low",3.9 g/dL
same,TBIL,"3 mg/kg, 6 h, dose level Low",0.046 mg/dL
same,TG,"3 mg/kg, 6 h, dose level Low",100 mg/dL
same,TP,"3 mg/kg, 6 h, dose level Low",5.4 g/dL
same,gamma-GTP,"3 mg/kg, 6 h, dose level Low",1 IU/L
same,TERMINAL_BW,"3 mg/kg, 9 h, dose level Low",212.9 g
same,Bas,[11],0%
same,Eos,[11],1%
same,Ht,[11],40.1%
same,Lym,[11],69.2%
same,MCHC,[11],32.4%
same,Ret,[11],6.5%
same,WBC,[11],79.8 x10_2/uL
same,KIDNEY_L,"3 mg/kg, 9 h, dose level Low",0.9 g
same,KIDNEY_R,"3 mg/kg, 9 h, dose level Low",0.9 g
same,KIDNEY_TOTAL,"3 mg/kg, 9 h, dose level Low",1.8 g
same,LIVER,"3 mg/kg, 9 h, dose level Low",9.3 g
same,ALP,"3 mg/kg, 9 h, dose level Low",1183.8 IU/L
same,ALT,"3 mg/kg, 9 h, dose level Low",27.6 IU/L
same,BUN,"3 mg/kg, 9 h, dose level Low",11.2 mg/dL
same,CRE,"3 mg/kg, 9 h, dose level Low",0.4 mg/dL
same,DBIL,"3 mg/kg, 9 h, dose level Low",0.01 mg/dL
same,GLC,"3 mg/kg, 9 h, dose level Low",195.6 mg/dL
same,IP,"3 mg/kg, 9 h, dose level Low",10.2 mg/dL
same,K,"3 mg/kg, 9 h, dose level Low",5 meq/L
same,Na,"3 mg/kg, 9 h, dose level Low",139.1 meq/L
same,PL,"3 mg/kg, 9 h, dose level Low",136.8 mg/dL
same,RALB,"3 mg/kg, 9 h, dose level Low",3.9 g/dL
same,TBIL,"3 mg/kg, 9 h, dose level Low",0.036 mg/dL
same,TG,"3 mg/kg, 9 h, dose level Low",59.2 mg/dL
same,TP,"3 mg/kg, 9 h, dose level Low",5.5 g/dL
same,gamma-GTP,"3 mg/kg, 9 h, dose level Low",0.4 IU/L
same,TERMINAL_BW,"3 mg/kg, 24 h, dose level Low",223.4 g
same,Bas,[12],0%
same,Eos,[12],1%
same,Ht,[12],40.2%
same,Lym,[12],72%
same,MCHC,[12],32.5%
same,Ret,[12],7.1%
same,WBC,[12],86.8 x10_2/uL
same,KIDNEY_L,"3 mg/kg, 24 h, dose level Low",1 g
same,KIDNEY_R,"3 mg/kg, 24 h, dose level Low",1 g
same,KIDNEY_TOTAL,"3 mg/kg, 24 h, dose level Low",2 g
same,LIVER,"3 mg/kg, 24 h, dose level Low",10.5 g
same,ALP,"3 mg/kg, 24 h, dose level Low",1597.4 IU/L
same,ALT,"3 mg/kg, 24 h, dose level Low",35.6 IU/L
same,BUN,"3 mg/kg, 24 h, dose level Low",16.4 mg/dL
same,CRE,"3 mg/kg, 24 h, dose level Low",0.4 mg/dL
same,DBIL,"3 mg/kg, 24 h, dose level Low",0.01 mg/dL
same,GLC,"3 mg/kg, 24 h, dose level Low",194.8 mg/dL
same,IP,"3 mg/kg, 24 h, dose level Low",8 mg/dL
same,K,"3 mg/kg, 24 h, dose level Low",4.9 meq/L
same,Na,"3 mg/kg, 24 h, dose level Low",139.1 meq/L
same,RALB,"3 mg/kg, 24 h, dose level Low",3.9 g/dL
same,TBIL,"3 mg/kg, 24 h, dose level Low",0.034 mg/dL
same,TG,"3 mg/kg, 24 h, dose level Low",124.2 mg/dL
same,TP,"3 mg/kg, 24 h, dose level Low",5.6 g/dL
same,gamma-GTP,"3 mg/kg, 24 h, dose level Low",1 IU/L
same,TERMINAL_BW,"10 mg/kg, 3 h, dose level Middle",225.1 g
